From US20210024542A1 (Torcept Therapeutics, Inc., priority 2018, published 2021)
Where two headings read alike, the source gives them in different places.

How the values were obtained:
CML-T1 = assay: OncoPanel cell proliferation assay, CML-T1; type: cell-based, human; details: for Relative cell count (%) Mean: CML-T1
Procedure: (§1) Cells were grown in RPMI 1640, 10% FBS, 2 mM L-alanyl-L-glutamine, 1 mM Na pyruvate, or a special medium. Cells were seeded into 384-well plates and incubated in a humidified atmosphere of 5% CO2 at 37° C. Compounds were added the day following cell seeding. At the same time, a time zero untreated cell plate was generated. After a 3-day incubation period, cells were fixed and stained to allow fluorescence imaging of nuclei. Compounds (1 mM stock solutions) were serially diluted in half-log steps from the highest test concentration ([…]), and assayed over 10 concentrations with a maximum assay concentration of 0.1% DMSO. Automated fluorescence microscopy was carried out using a Molecular Devices ImageXpress Micro XL high-content imager, and images were collected with a 4× objective. 16-bit TIFF images were acquired and analyzed with MetaXpress 5.1.0.41 software.
(§2) Cell proliferation was measured by the fluorescence intensity of an incorporated nuclear dye. The output is referred to as the relative cell count, where the measured nuclear intensity is transformed to percent of control (POC) using the following formula: […]
(§3) Cellular response parameters were calculated using nonlinear regression to a sigmoidal single-site dose response model:
(§4) Where y is a response measured at concentration x, A and B are the lower and upper limits of the response, C is the concentration at the response midpoint (EC50), and D is the Hill Slope (Ref. 1).
(§5) EC50 is the test compound concentration at the curve inflection point or half the effective response (parameter C of the fitted curve solution). GI50 is the concentration needed to reduce the observed growth by half (midway between the curve maximum and the time zero value). “Cell Count Activity Area” is an estimate of the integrated area above the curve (Barretina, et al. The Cancer Cell Line Encyclopedia enables predictive modelling of anticancer drug sensitivity. Nature 483: 603-607). […] In rare instances, values <0 or >10 may be observed. […] Curve-fitting, calculations, and report generation was performed using a custom data reduction engine and MathIQ based software (AIM).

SCaBER = assay: OncoPanel cell proliferation assay, SCaBER; type: cell-based, human
Procedure: as §1, §2, §3, §4, §5

T24 = assay: OncoPanel cell proliferation assay, T24; type: cell-based, human; details: for Relative cell count (%) Mean: T24
Procedure: as §1, §2, §3, §4, §5

PC-3 = assay: OncoPanel cell proliferation assay, PC-3; details: for Relative cell count (%) Mean: PC-3
Procedure: (§6) Cells were seeded into 384-well plates and incubated in a humidified atmosphere of 5% CO2 at 37° C. Compounds were added the day following cell seeding. At the same time, a time zero untreated cell plate was generated. After a 3-day incubation period, cells were fixed and stained to allow fluorescence imaging of nuclei. Compounds (1 mM stock solutions) were serially diluted in half-log steps from the highest test concentration (1 micromol), and assayed over 10 concentrations with a maximum assay concentration of 0.1% DMSO. Automated fluorescence microscopy was carried out using a Molecular Devices ImageXpress Micro XL high-content imager, and images were collected with a 4× objective. 16-bit TIFF images were acquired and analyzed with MetaXpress 5.1.0.41 software.
(§7) GI50 is the concentration needed to reduce the observed growth by half (midway between the curve maximum and the time zero value). […] In rare instances, values <0 or >10 may be observed. […] Curve-fitting, calculations, and report generation was performed using a custom data reduction engine and MathIQ based software (AIM).

CAMA-1 = assay: OncoPanel cell proliferation assay, CAMA-1; details: for Relative cell count (%) Mean: CAMA-1
Procedure: as §6, §7

SK-UT-1 = assay: OncoPanel cell proliferation assay, SK-UT-1; details: for Relative cell count (%) Mean: SK-UT-1
Procedure: as §6, §7

CO[C@H]1C[C@@H]2CC[C@@H](C)[C@@](O)(O2)C(=O)C(=O)N2CCCC[C@H]2C(=O)O[C@H]([C@H](C)C[C@@H]2C[C@@H]3C[C@H]2C[C@H]3O)CC(=O)[C@H](C)/C=C(\C)[C@@H](O)[C@@H](OC)C(=O)[C@H](C)C[C@H](C)/C=C/C=C/C=C/1C [Formula I, 37R-hydroxynorbornylrapamycin]
Cell Count Activity Area (CML-T1; CML-T1, scale 0-10): 4.54
Relative cell count (%) Mean (CML-T1; 1.00E+00 microM): 36.5%
Relative cell count (%) Mean (CML-T1; 1.00E−01 microM): 42.6%
Relative cell count (%) Mean (CML-T1; 1.00E−02 microM): 46.7%
Relative cell count (%) Mean (CML-T1; 1.00E−03 microM): 55.6%
Relative cell count (%) Mean (CML-T1; 1.01E−04 microM): 83.6%
Relative cell count (%) Mean (CML-T1; 3.16E−01 microM): 33.1%
Relative cell count (%) Mean (CML-T1; 3.17E−02 microM): 42.3%
Relative cell count (%) Mean (CML-T1; 3.17E−03 microM): 49.5%
Relative cell count (%) Mean (CML-T1; 3.18E−04 microM): 65.3%
Relative cell count (%) Mean (CML-T1; 3.18E−05 microM): 90.6%
EC50 (CML-T1; Homo sapiens, 72 h, CML-T1, 3-day incubation, read-out: Cell Count EC50): 0.317 nM
GI50 (CML-T1; Homo sapiens, 72 h, CML-T1, 3-day incubation, read-out: Cell Count GI50): 0.998 nM
IC50 (CML-T1; Homo sapiens, 72 h, CML-T1, 3-day incubation, read-out: Cell Count IC50): 2.51 nM
Relative cell count (%) Mean (SCaBER; 1.00E+00 microM): 32.4%
Relative cell count (%) Mean (SCaBER; 1.00E−01 microM): 36.9%
Relative cell count (%) Mean (SCaBER; 1.00E−02 microM): 35.4%
Relative cell count (%) Mean (SCaBER; 1.00E−03 microM): 44.7%
Relative cell count (%) Mean (SCaBER; 1.01E−04 microM): 61.7%
Relative cell count (%) Mean (SCaBER; 3.16E−01 microM): 33.0%
Relative cell count (%) Mean (SCaBER; 3.17E−02 microM): 34.0%
Relative cell count (%) Mean (SCaBER; 3.17E−03 microM): 38.7%
Relative cell count (%) Mean (SCaBER; 3.18E−04 microM): 55.4%
Relative cell count (%) Mean (SCaBER; 3.18E−05 microM): 81.9%
EC50 (SCaBER; Homo sapiens, 72 h, 3-day incubation, read-out: Cell Count EC50): 0.0947 nM
GI50 (SCaBER; Homo sapiens, 72 h, 3-day incubation, read-out: Cell Count GI50): 0.262 nM
IC50 (SCaBER; Homo sapiens, 72 h, 3-day incubation, read-out: Cell Count IC50): 0.451 nM
EC50 (SCaBER; Homo sapiens, Table 4 summary, Bladder, read-out: EC50): 0.095 nM
Cell Count Activity Area (SCaBER; scale 0-10): 5.46
EC50 (T24; Homo sapiens, T-24, 72 h, T24, 3-day incubation, read-out: Cell Count EC50): 0.102 nM
GI50 (T24; Homo sapiens, T-24, 72 h, T24, 3-day incubation, read-out: Cell Count GI50): 0.475 nM
IC50 (T24; Homo sapiens, T-24, 72 h, T24, 3-day incubation, read-out: Cell Count IC50): 0.905 nM
Cell Count Activity Area (T24; T24, scale 0-10): 4.92
Relative cell count (%) Mean (T24; 1.00E+00 microM): 38.7%
Relative cell count (%) Mean (T24; 1.00E−01 microM): 41.3%
Relative cell count (%) Mean (T24; 1.00E−02 microM): 43.9%
Relative cell count (%) Mean (T24; 1.00E−03 microM): 49.5%
Relative cell count (%) Mean (T24; 1.01E−04 microM): 68.7%
Relative cell count (%) Mean (T24; 3.16E−01 microM): 37.1%
Relative cell count (%) Mean (T24; 3.17E−02 microM): 42.0%
Relative cell count (%) Mean (T24; 3.17E−03 microM): 46.0%
Relative cell count (%) Mean (T24; 3.18E−04 microM): 57.0%
Relative cell count (%) Mean (T24; 3.18E−05 microM): 84.1%
EC50 (PC-3; Homo sapiens, PC-3, 72 h, read-out: Cell Count EC50): 0.346 nM
GI50 (PC-3; Homo sapiens, PC-3, 72 h, read-out: Cell Count GI50): 1.89 nM
IC50 (PC-3; Homo sapiens, PC-3, 72 h, read-out: Cell Count IC50): 9.55 nM
Cell Count Activity Area (PC-3; PC-3, scale 0-10): 3.97
Relative cell count (%) Mean (PC-3; 1.00E+00 microM): 42.2%
Relative cell count (%) Mean (PC-3; 1.00E−01 microM): 47.9%
Relative cell count (%) Mean (PC-3; 1.00E−02 microM): 53.6%
Relative cell count (%) Mean (PC-3; 1.00E−03 microM): 59.2%
Relative cell count (%) Mean (PC-3; 1.01E−04 microM): 87.3%
Relative cell count (%) Mean (PC-3; 3.16E−01 microM): 43.8%
Relative cell count (%) Mean (PC-3; 3.17E−02 microM): 47.1%
Relative cell count (%) Mean (PC-3; 3.17E−03 microM): 59.0%
Relative cell count (%) Mean (PC-3; 3.18E−04 microM): 69.1%
Relative cell count (%) Mean (PC-3; 3.18E−05 microM): 93.7%
Cell Count Activity Area (CAMA-1; CAMA-1, scale 0-10): 4.42
Relative cell count (%) Mean (CAMA-1; 1.00E+00 microM): 44.1%
Relative cell count (%) Mean (CAMA-1; 1.00E−01 microM): 45.8%
Relative cell count (%) Mean (CAMA-1; 1.00E−02 microM): 51.2%
Relative cell count (%) Mean (CAMA-1; 1.00E−03 microM): 53.9%
Relative cell count (%) Mean (CAMA-1; 1.01E−04 microM): 86.0%
Relative cell count (%) Mean (CAMA-1; 3.16E−01 microM): 46.2%
Relative cell count (%) Mean (CAMA-1; 3.17E−02 microM): 48.8%
Relative cell count (%) Mean (CAMA-1; 3.17E−03 microM): 50.2%
Relative cell count (%) Mean (CAMA-1; 3.18E−04 microM): 66.1%
Relative cell count (%) Mean (CAMA-1; 3.18E−05 microM): 97.5%
EC50 (CAMA-1; Homo sapiens, CAMA-1, 72 h, read-out: Cell Count EC50): 0.174 nM
GI50 (CAMA-1; Homo sapiens, CAMA-1, 72 h, read-out: Cell Count GI50): 0.239 nM
IC50 (CAMA-1; Homo sapiens, CAMA-1, 72 h, read-out: Cell Count IC50): 1.28 nM
EC50 (SK-UT-1; Homo sapiens, SK-UT-1, 72 h, read-out: Cell Count EC50): 0.284 nM
GI50 (SK-UT-1; Homo sapiens, SK-UT-1, 72 h, read-out: Cell Count GI50): 2.01 nM
IC50 (SK-UT-1; Homo sapiens, SK-UT-1, 72 h, read-out: Cell Count IC50): 11.7 nM
Cell Count Activity Area (SK-UT-1; SK-UT-1, scale 0-10): 3.95
Relative cell count (%) Mean (SK-UT-1; 1.00E+00 microM): 50.0%
Relative cell count (%) Mean (SK-UT-1; 1.00E−01 microM): 57.6%
Relative cell count (%) Mean (SK-UT-1; 1.00E−02 microM): 52.2%
Relative cell count (%) Mean (SK-UT-1; 1.00E−03 microM): 72.8%
Relative cell count (%) Mean (SK-UT-1; 1.01E−04 microM): 94.8%
Relative cell count (%) Mean (SK-UT-1; 3.16E−01 microM): 48.7%
Relative cell count (%) Mean (SK-UT-1; 3.17E−02 microM): 53.1%
Relative cell count (%) Mean (SK-UT-1; 3.17E−03 microM): 57.1%
Relative cell count (%) Mean (SK-UT-1; 3.18E−04 microM): 72.6%
Relative cell count (%) Mean (SK-UT-1; 3.18E−05 microM): 98.4%
